Where two headings read alike, the source gives them in different places. Marks after values point to notes of the source that are not given here.
Key:
[1] = test system: bleomycin model of pulmonary fibrosis; test: Bleomycin model of pulmonary fibrosis (hydroxyproline, fibrosis score); type: in vivo, Wistar rats; settings: for Right lung Average Hydroxyproline: days 7-28; for Average Fibrosis Score, difference from bleomycin control / Right lung Average Hydroxyproline, difference from bleomycin control: sham-subtracted
Description: To compare anti-fibrotic efficacy between extended-duration intratracheal, direct-lung aerosol administration and oral gavage, the bleomycin model of pulmonary fibrosis was performed. Doses for this study were selected based upon pharmacokinetic parameters obtained in Table 22 (from Example 8). Briefly, Wistar rats (175-225 grams) were administered bleomycin by the intratracheal route using a Penn Century MicroSprayer® catheter. On the seventh day following bleomycin exposure, animals initiated treatment with either saline or pirfenidone. Animals were dosed once a day on days 7 through 28, and euthanized on day 29. Pirfenidone was administered either intratracheally using Penn Century MicroSprayer catheter or by oral gavage. Sham and bleomycin control groups received either no treatment or intratracheal saline by Penn Century MicroSprayer catheter. While dosing more frequently (or less frequently) may improve the observed effects, anesthesia required for intratracheal administration reduced animal weight gain (reduced food intake) and, thus limited dosing to once a day for this study. Because anesthesia reduced weight gain, all study animals (intratracheal, oral and control) received once-a-day isoflurane using the same technique and duration. Twelve animals were enrolled into each dosing group. […] Oral gavage was administered in a single 300 mcL volume. Due to technical restrictions, instead of the mg/kg dose being equally split between six 50 mcL administrations over 2 minutes, intratracheal administration was performed with three equal 50 mcL volumes administered every 40 seconds over the same period. For dose selection, data from Table 22 was extrapolated. On day 29, animals were euthanized. Right lungs were extracted and measured for hydroxyproline content, while left lungs were subjected to histology. Histological sections were stained with picrosirius red and scored for lung tissue fibrosis. Twenty random photographs of each stained lung tissue section were taken, blinded and scored by an independent review panel. Observations were pooled for analysis.

[2] = Pharmacokinetics and lung-tissue distribution after oral gavage or intratracheal aerosol; type: in vivo, Sprague-Dawley rats; settings: for half-life / Cmax / AUC(0-t): Sprague-Dawley, rat, inhaled or intranasal; for AUC(0-t): read-out: Plasma AUC0-6 hrs; for Lung Cmax: immediate post-dose calculated from direct-lung delivered dose
2E1 = molecular target: T1, 2E1 (Homo sapiens, UniProt P05181); settings: hepatic microsomes; cited from earlier work
T1 construct: In vitro metabolism studies with hepatic microsomes; from tissue; host or cells: hepatic microsomes

[3] = Pharmacokinetics and tissue distribution (lung, plasma, heart, kidney) of co-solvent formulations, intratracheal bolus aerosol; type: in vivo, Sprague-Dawley rats; settings: for concentration at 0.167 hr / concentration at 0.333 hr / concentration at 0.667 hr / concentration at 0 h / concentration at 4 min / concentration at 2.5 h / concentration at 0.167 h / concentration at 0.333 h / concentration at 0.667 h / concentration at 1 h: Sprague-Dawley, rat, 4 mg/kg, Pirfenidone, Mean, about 4 mg/kg IT aerosol; for concentration at 0.167 hr / concentration at 0.333 hr / concentration at 0.667 hr: other: intratracheal bolus aerosol (nebulizing catheter); for concentration at 0 h / concentration at 4 min / concentration at 2.5 h / concentration at 0.167 h / concentration at 0.333 h / concentration at 0.667 h / concentration at 1 h: other: intratracheal bolus aerosol; for concentration at 4 min: 0.0667 hr
Description: Selected formulations were prepared for pharmacokinetic analysis following aerosol delivery to rat lung. […] Formulations prepared for this study are outlined in Table 9. […] The sample was agitated until completely dissolved. […] Filtered samples were analyzed by HPLC.

[4] = Intravenous push of pirfenidone, plasma and lung levels; type: in vivo; settings: mouse
[5] = cited from earlier work; for AUC over 0-18 hours / Cmax: human, plasma (Rubino et al., 2009)
[6] = Bleomycin + IT pirfenidone 0.9 mg/kg
[7] = Bleomycin + IT pirfenidone 3.0 mg/kg
[8] = Bleomycin + IT pirfenidone 6.4 mg/kg
[9] = Bleomycin + PO pirfenidone 30 mg/kg
[10] = Bleomycin + PO pirfenidone 100 mg/kg

T1 sequence (P05181 whole entry): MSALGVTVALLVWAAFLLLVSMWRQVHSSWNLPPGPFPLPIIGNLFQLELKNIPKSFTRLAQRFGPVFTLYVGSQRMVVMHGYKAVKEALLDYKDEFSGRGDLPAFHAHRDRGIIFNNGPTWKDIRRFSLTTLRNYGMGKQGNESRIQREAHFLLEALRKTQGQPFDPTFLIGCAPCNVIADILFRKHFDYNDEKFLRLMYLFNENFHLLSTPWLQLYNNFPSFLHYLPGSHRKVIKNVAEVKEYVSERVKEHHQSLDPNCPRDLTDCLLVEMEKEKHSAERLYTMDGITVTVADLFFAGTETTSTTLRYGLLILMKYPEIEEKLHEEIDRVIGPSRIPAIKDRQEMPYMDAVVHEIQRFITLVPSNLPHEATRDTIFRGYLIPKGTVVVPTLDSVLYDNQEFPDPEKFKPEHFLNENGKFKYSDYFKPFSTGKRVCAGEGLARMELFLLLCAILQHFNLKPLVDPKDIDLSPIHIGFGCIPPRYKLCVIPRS

Cc1ccc(=O)n(-c2ccccc2)c1 [pirfenidone, 5-methyl-1-phenyl-2-(1H)-pyridone]
possible lung tissue Cmax ([1]; 0.9 mg/kg dose to 250 gram rat, lung about 1.5 grams, whole dose): ≤ 150 mcg/gram | possible lung tissue Cmax ([1]; 0.9 mg/kg intratracheal dose divided into thirds): about 50 mcg/gram lung tissue | anti-fibrotic efficacy ([1]; 3.0 mg/kg intratracheal, direct lung aerosol, once a day days 7-28): no observed pirfenidone efficacy | Average Fibrosis Score, Picrosirius Red-stained left lung sections [1, 6]: 2.88* | Lung Tissue AUC0-2 hrs [1, 6]: 2.6 µg·h/g | Lung Tissue Cmax [1, 6]: 11.6 µg/g | Right lung Average Hydroxyproline ([1]; Bleomycin + IT pirfenidone 0.9 mg/kg once a day): 2.88* mg/right lung | Average Fibrosis Score, difference from bleomycin control [1, 6]: −0.53*, **** | Right lung Average Hydroxyproline, difference from bleomycin control [1, 6]: −0.70*, **** mg/right lung | Average Fibrosis Score, Picrosirius Red-stained left lung sections [1, 7]: 3.66 | Lung Tissue AUC0-2 hrs [1, 7]: 7.3 µg·h/g | Lung Tissue Cmax [1, 7]: 33.5 µg/g | Right lung Average Hydroxyproline ([1]; Bleomycin + IT pirfenidone 3.0 mg/kg once a day): 3.56 mg/right lung | Average Fibrosis Score, difference from bleomycin control [1, 7]: 0.26***, **** | Right lung Average Hydroxyproline, difference from bleomycin control [1, 7]: −0.02**, **** mg/right lung | Average Fibrosis Score, Picrosirius Red-stained left lung sections [1, 8]: 3.47 | Lung Tissue AUC0-2 hrs [1, 8]: 15.5 µg·h/g | Lung Tissue Cmax [1, 8]: 71.5 µg/g | Right lung Average Hydroxyproline ([1]; Bleomycin + IT pirfenidone 6.4 mg/kg once a day): 3.50 mg/right lung | Average Fibrosis Score, difference from bleomycin control [1, 8]: 0.07**, **** | Right lung Average Hydroxyproline, difference from bleomycin control [1, 8]: −0.08***, **** mg/right lung | Average Fibrosis Score, Picrosirius Red-stained left lung sections [1, 9]: 3.11 | Lung Tissue AUC0-2 hrs [1, 9]: 18.2 µg·h/g | Lung Tissue Cmax [1, 9]: 11.8 µg/g | Right lung Average Hydroxyproline ([1]; Bleomycin + PO pirfenidone 30 mg/kg once a day): 3.65 mg/right lung | Average Fibrosis Score, difference from bleomycin control [1, 9]: 0.68*, ** | Right lung Average Hydroxyproline, difference from bleomycin control [1, 9]: 0.43*, ** mg/right lung | Average Fibrosis Score, Picrosirius Red-stained left lung sections [1, 10]: 3.61 | Lung Tissue AUC0-2 hrs [1, 10]: 34.4 µg·h/g | Lung Tissue Cmax [1, 10]: 33.6 µg/g | Right lung Average Hydroxyproline ([1]; Bleomycin + PO pirfenidone 100 mg/kg once a day): 3.73 mg/right lung | Average Fibrosis Score, difference from bleomycin control [1, 10]: 1.18*** | Right lung Average Hydroxyproline, difference from bleomycin control [1, 10]: 0.51*** mg/right lung | anti-fibrotic efficacy (fibrosis, hydroxyproline), direct lung versus oral ([1]; intratracheal aerosol versus oral gavage): more efficacious | half-life ([2]; lung, 1 mg/kg, aerosol 1 mg/kg, read-out: Lung T1/2 α): < 0.0167 h | half-life ([2]; lung, 1 mg/kg, aerosol 1 mg/kg, read-out: Lung T1/2 β): 0.75 h | half-life ([2]; lung, 5 mg/kg, aerosol 5 mg/kg, read-out: Lung T1/2 α): < 0.0167 h | half-life ([2]; lung, 5 mg/kg, aerosol 5 mg/kg, read-out: Lung T1/2 β): 0.75 h | half-life ([2]; plasma, 1 mg/kg, aerosol 1 mg/kg, read-out: Plasma T1/2): 0.5 h | half-life ([2]; plasma, 5 mg/kg, aerosol 5 mg/kg, read-out: Plasma T1/2): 0.5 h | Cmax ([2]; plasma, aerosol 1 mg/kg): 1100 ng/mL | AUC(0-t) ([2]; plasma, aerosol 1 mg/kg): 900 ng·h/mL | Cmax ([2]; plasma, aerosol 5 mg/kg): 7000 ng/mL | AUC(0-t) ([2]; plasma, aerosol 5 mg/kg): 4500 ng·h/mL | Lung AUC (for time >1 μg/g) ([2]; aerosol 1 mg/kg): 5.2 mg·h/kg | Lung TOE, time of exposure over 1 μg/g lung tissue ([2]; aerosol 1 mg/kg): 5 min | Lung AUC (for time >1 μg/g) ([2]; aerosol 5 mg/kg): 25.4 mg·h/kg | Lung TOE, time of exposure over 1 μg/g lung tissue ([2]; aerosol 5 mg/kg): 84 min | Lung Cmax ([2]; aerosol (bolus intratracheal) 1 mg/kg): 101 µg/g | Lung Cmax ([2]; aerosol (bolus intratracheal) 5 mg/kg): 508 µg/g | Lung AUC (for time >1 μg/g) ([2]; oral 70 mg/kg): 4.3 mg·h/kg | contribution to pirfenidone metabolism (2E1): less than 13% | concentration at 0.167 hr ([3]; heart, heart tissue, Group 1): 4910 ng/g | concentration at 0.333 hr ([3]; heart, heart tissue, Group 1): 3850 ng/g | concentration at 0.667 hr ([3]; heart, heart tissue, Group 1): 1800 ng/g | concentration at 0.167 hr ([3]; heart, heart tissue, Group 2): 4100 ng/g | concentration at 0.333 hr ([3]; heart, heart tissue, Group 2): 3130 ng/g | concentration at 0.667 hr ([3]; heart, heart tissue, Group 2): 2190 ng/g | concentration at 0.167 hr ([3]; heart, heart tissue, Group 6): 4950 ng/g | concentration at 0.333 hr ([3]; heart, heart tissue, Group 6): 3430 ng/g | concentration at 0.667 hr ([3]; heart, heart tissue, Group 6): 2220 ng/g | concentration at 0 h ([3]; heart, heart tissue, Group 1): 20 ng/g | concentration at 4 min ([3]; heart, heart tissue, Group 1): 7900 ng/g | concentration at 2.5 h ([3]; heart, heart tissue, Group 1): 90 ng/g | concentration at 0 h ([3]; heart, heart tissue, Group 2): 190 ng/g | concentration at 4 min ([3]; heart, heart tissue, Group 2): 5920 ng/g | concentration at 2.5 h ([3]; heart, heart tissue, Group 2): 120 ng/g | concentration at 0 h ([3]; heart, heart tissue, Group 6): 80 ng/g | concentration at 4 min ([3]; heart, heart tissue, Group 6): 6320 ng/g | concentration at 2.5 h ([3]; heart, heart tissue, Group 6): 120 ng/g | concentration at 0 h ([3]; kidney, kidney tissue, Group 1): 10 ng/g | concentration at 4 min ([3]; kidney, kidney tissue, Group 1): 9880 ng/g | concentration at 0.167 h ([3]; kidney, kidney tissue, Group 1): 6620 ng/g | concentration at 0.333 h ([3]; kidney, kidney tissue, Group 1): 4870 ng/g | concentration at 0.667 h ([3]; kidney, kidney tissue, Group 1): 2860 ng/g | concentration at 0 h ([3]; kidney, kidney tissue, Group 2): 470 ng/g | concentration at 4 min ([3]; kidney, kidney tissue, Group 2): 10800 ng/g | concentration at 0.167 h ([3]; kidney, kidney tissue, Group 2): 8300 ng/g | concentration at 0.333 h ([3]; kidney, kidney tissue, Group 2): 7440 ng/g | concentration at 0.667 h ([3]; kidney, kidney tissue, Group 2): 3310 ng/g | concentration at 1 h ([3]; kidney, kidney tissue, Group 2): 1750 ng/g | concentration at 2.5 h ([3]; kidney, kidney tissue, Group 2): 180 ng/g | concentration at 0 h ([3]; kidney, kidney tissue, Group 6): 270 ng/g | concentration at 4 min ([3]; kidney, kidney tissue, Group 6): 12900 ng/g | concentration at 0.167 h ([3]; kidney, kidney tissue, Group 6): 6650 ng/g | concentration at 0.333 h ([3]; kidney, kidney tissue, Group 6): 4870 ng/g | concentration at 0.667 h ([3]; kidney, kidney tissue, Group 6): 3530 ng/g | concentration at 1 h ([3]; kidney, kidney tissue, Group 6): 1710 ng/g | adverse events ([3]; about 4 mg/kg intratracheal bolus aerosol, co-solvent formulations, rats): No adverse events were noted | Lung Cmax ([4]; 40 mg/kg intravenous dose): 30 mcg/gram wet tissue | pirfenidone in the lung tissue after subtracting blood content ([4]; 40 mg/kg intravenous dose, blood assumed 40% of wet lung weight): about 8 mcg/g | wet lung half-life, longer than the plasma half-life ([4]; intravenous push): about 45% | Cmax ([4]; plasma, 40 mg/kg intravenous dose): ~55000 ng/mL | T1/2 beta ([5]; aerosol 110 mg RDD, lung tissue, from plasma T1/2, Rubino et al., 2009 fasted-state): 2.5 h | T1/2 beta ([5]; aerosol 110 mg RDD, plasma, Rubino et al., 2009 fasted-state): 2.5 h | T1/2 beta ([5]; aerosol 154 mg RDD, lung tissue, from plasma T1/2, Rubino et al., 2009 fasted-state): 2.5 h | T1/2 beta ([5]; aerosol 154 mg RDD, plasma, Rubino et al., 2009 fasted-state): 2.5 h | T1/2 beta ([5]; aerosol 185 mg RDD, lung tissue, from plasma T1/2, Rubino et al., 2009 fasted-state): 2.5 h | T1/2 beta ([5]; aerosol 185 mg RDD, plasma, Rubino et al., 2009 fasted-state): 2.5 h | AUC over 0-18 hours ([5]; oral 801 mg fasted-state): 67700 ng·h/mL | Cmax ([5]; oral 801 mg fasted-state): 14.2 microgram/mL | AUC over 0-18 hours ([5]; oral 801 mg fed-state): 58900 ng·h/mL | Cmax ([5]; oral 801 mg fed-state): 7.9 microgram/mL | T1/2 beta ([5]; oral 801 mg fasted-state, lung tissue, from plasma T1/2, Rubino et al., 2009): 2.5 h | T1/2 beta ([5]; oral 801 mg fasted-state, plasma, Rubino et al., 2009): 2.5 h | T1/2 beta ([5]; oral 801 mg fed-state, lung tissue, from plasma T1/2, Rubino et al., 2009): 2.4 h | T1/2 beta ([5]; oral 801 mg fed-state, plasma, Rubino et al., 2009): 2.4 h
